From article PMC12362783 (Advanced Science, 2025)

How the values were obtained:
MCF‐10A = assay: Cell growth inhibition, normal breast cell line; assay type: cell-based; settings: Homo sapiens, MCF-10A; @30 µM; read-out: MCF‐10A inhibitory rate at certain concentration
Method: (§1) Growth viability was determined by the CellTiter‐Glo luminescent viability assay (Promega) 5 days after drug treatment. Cell viability was measured immediately after dosing (Day 0) and after 5 days of incubation using CellTiter‐Glo (CTG, Promega, G7573). Relative viability was calculated by normalizing the raw luminescence counts of the treated groups to those of the DMSO control groups. IC₅₀ values were calculated using sigmoidal dose‐response curve fitting with GraphPad Prism 9.0 software.

MDA‐MB‐468 cells = assay: Cell cycle assay, flow cytometry (PI); assay type: cell-based; settings: MDA‐MB‐468, 48 h; A7, B8 0.5 and 1.0 µM, controls 1.0 µM
Method: The cell cycle analysis was performed with cells seeded in 6‐well plates in growth media. The cells were allowed to attach overnight (8 h). The cultures were treated with different tested drugs for 48 h. After treatment, cells were collected and fixed with 70% pre‐cold ethanol in PBS and stored at −20 °C overnight. Then washed the cells with PBS twice, and incubated with 100 µg mL^−1 RNase A at 37 °C for 1 h, stained with propidium iodide for 30 min avoid light at room temperature. The stained cells were analyzed by flow cytometry. The percentages of cells in the G1, S, and G2/M phases were determined. The data were analyzed by FlowJo software (Tree Star, Inc., Ashland, OR).

MDA‐MB‐436 = assay: Cell growth inhibition, CellTiter‐Glo (CTG); assay type: cell-based; settings: for IC50: CTG, 5 days, n = 3; for inhibition at 5 µM: MDA-MB-436, read-out: MDA‐MB‐436 inhibitory rate at certain concentration
Method: (§2) All cells were grown in a humidified incubator at 37 °C and 5% CO2.
as §1

MDA‐MB‐468 = assay: Cell growth inhibition, CellTiter‐Glo (CTG); assay type: cell-based; settings: Homo sapiens, MDA-MB-468, 120 h; CTG, 5 days, n = 3
Method: as §2
(§3) […] […] Relative viability was calculated by normalizing the raw luminescence counts of the treated groups to those of the DMSO control groups. IC₅₀ values were calculated using sigmoidal dose‐response curve fitting with GraphPad Prism 9.0 software.

MDA‐MB‐453 = assay: Cell growth inhibition, CellTiter‐Glo (CTG); assay type: cell-based; settings: Homo sapiens, MDA-MB-453; n = 3; read-out: IC50 MAD‐MB‐453
Method: as §1

MCF‐7 = assay: Cell growth inhibition, CellTiter‐Glo (CTG); assay type: cell-based; settings: Homo sapiens, MCF7; n = 3
Method: as §1

ATR = biological target: T1, ATR (Homo sapiens, UniProt Q13535); assay: ATR kinase inhibition, Mobility Shift Assay; assay type: biochemical; settings: for IC50: n = 3, mean ± SD
T1 construct: purchased Eurofins 14-953
Method: The in vitro ATR kinase inhibitory activities were determined by ChemPartner Co., Ltd. (Shanghai, China) using the Mobility Shift Assay. The tested compound was dissolved with DMSO and diluted to 1000/3 × of the final desired highest inhibitor concentration in the reaction. […] The assay wells were incubated at 28 °C for 4 h.

[1] = test system: TNBC cells (MDA‐MB‐231, MDA‐MB‐468, MDA‐MB‐436); assay: Anti‐proliferative activity across three TNBC cell lines (summary); assay type: cell-based
Method: as §1, with “Cells were grown at 37 °C, under 95% air and 5% CO₂ until they reached about 70% confluence and were subcultured at least twice before the experiment. Cells were seeded at a density of 1000 cells/well in two 384‐well white plates, and the plates were placed in a 5% CO₂ incubator overnight. Growth” for “Growth”

PARP1 = PARP1 (Homo sapiens, UniProt P09874); assay: PARP enzymatic inhibition ELISA (PARP1); assay type: biochemical; settings: for IC50: n = 3, mean ± SD
Method: The PARP activity assay was performed by ChemPartner (Shanghai, China). Each well was precoated with histone (final conc.: 100 ng mL^−1) diluted in PBS buffer (contains 10 mmol L^−1 NaH2PO4 and 150 mmol L^−1 NaCl, pH 7.4) by incubation at 4 °C overnight. […] The reaction was initiated by the addition of 10 µL of PARP (final conc.: 0.007 nM/well) at room temperature for 60 min. Add 20 µL of anti‐Poly/Mono‐ADP Ribose Rabbit mAb. Incubate for 1.5 h at room temperature and wash the plate three times using PBST buffer. […] Incubate for 1 h at room temperature and wash the plate three times using PBST buffer. Add 25 µL Femto‐ECL Substrate A and Femto‐ECL Substrate B (1:1) mix. Immediately read chemiluminescence on Envision (Revvity, USA).

MDA‐MB‐231 = assay: Cell growth inhibition, CellTiter‐Glo (CTG); assay type: cell-based; settings: Homo sapiens, MDA-MB-231, 120 h, read-out: IC50 MDA‐MB‐231; CTG, 5 days, n = 3
Method: as §2, §3

[2] = Homo sapiens, MDA-MB-436, 120 h

T1 sequence (Q13535 whole entry): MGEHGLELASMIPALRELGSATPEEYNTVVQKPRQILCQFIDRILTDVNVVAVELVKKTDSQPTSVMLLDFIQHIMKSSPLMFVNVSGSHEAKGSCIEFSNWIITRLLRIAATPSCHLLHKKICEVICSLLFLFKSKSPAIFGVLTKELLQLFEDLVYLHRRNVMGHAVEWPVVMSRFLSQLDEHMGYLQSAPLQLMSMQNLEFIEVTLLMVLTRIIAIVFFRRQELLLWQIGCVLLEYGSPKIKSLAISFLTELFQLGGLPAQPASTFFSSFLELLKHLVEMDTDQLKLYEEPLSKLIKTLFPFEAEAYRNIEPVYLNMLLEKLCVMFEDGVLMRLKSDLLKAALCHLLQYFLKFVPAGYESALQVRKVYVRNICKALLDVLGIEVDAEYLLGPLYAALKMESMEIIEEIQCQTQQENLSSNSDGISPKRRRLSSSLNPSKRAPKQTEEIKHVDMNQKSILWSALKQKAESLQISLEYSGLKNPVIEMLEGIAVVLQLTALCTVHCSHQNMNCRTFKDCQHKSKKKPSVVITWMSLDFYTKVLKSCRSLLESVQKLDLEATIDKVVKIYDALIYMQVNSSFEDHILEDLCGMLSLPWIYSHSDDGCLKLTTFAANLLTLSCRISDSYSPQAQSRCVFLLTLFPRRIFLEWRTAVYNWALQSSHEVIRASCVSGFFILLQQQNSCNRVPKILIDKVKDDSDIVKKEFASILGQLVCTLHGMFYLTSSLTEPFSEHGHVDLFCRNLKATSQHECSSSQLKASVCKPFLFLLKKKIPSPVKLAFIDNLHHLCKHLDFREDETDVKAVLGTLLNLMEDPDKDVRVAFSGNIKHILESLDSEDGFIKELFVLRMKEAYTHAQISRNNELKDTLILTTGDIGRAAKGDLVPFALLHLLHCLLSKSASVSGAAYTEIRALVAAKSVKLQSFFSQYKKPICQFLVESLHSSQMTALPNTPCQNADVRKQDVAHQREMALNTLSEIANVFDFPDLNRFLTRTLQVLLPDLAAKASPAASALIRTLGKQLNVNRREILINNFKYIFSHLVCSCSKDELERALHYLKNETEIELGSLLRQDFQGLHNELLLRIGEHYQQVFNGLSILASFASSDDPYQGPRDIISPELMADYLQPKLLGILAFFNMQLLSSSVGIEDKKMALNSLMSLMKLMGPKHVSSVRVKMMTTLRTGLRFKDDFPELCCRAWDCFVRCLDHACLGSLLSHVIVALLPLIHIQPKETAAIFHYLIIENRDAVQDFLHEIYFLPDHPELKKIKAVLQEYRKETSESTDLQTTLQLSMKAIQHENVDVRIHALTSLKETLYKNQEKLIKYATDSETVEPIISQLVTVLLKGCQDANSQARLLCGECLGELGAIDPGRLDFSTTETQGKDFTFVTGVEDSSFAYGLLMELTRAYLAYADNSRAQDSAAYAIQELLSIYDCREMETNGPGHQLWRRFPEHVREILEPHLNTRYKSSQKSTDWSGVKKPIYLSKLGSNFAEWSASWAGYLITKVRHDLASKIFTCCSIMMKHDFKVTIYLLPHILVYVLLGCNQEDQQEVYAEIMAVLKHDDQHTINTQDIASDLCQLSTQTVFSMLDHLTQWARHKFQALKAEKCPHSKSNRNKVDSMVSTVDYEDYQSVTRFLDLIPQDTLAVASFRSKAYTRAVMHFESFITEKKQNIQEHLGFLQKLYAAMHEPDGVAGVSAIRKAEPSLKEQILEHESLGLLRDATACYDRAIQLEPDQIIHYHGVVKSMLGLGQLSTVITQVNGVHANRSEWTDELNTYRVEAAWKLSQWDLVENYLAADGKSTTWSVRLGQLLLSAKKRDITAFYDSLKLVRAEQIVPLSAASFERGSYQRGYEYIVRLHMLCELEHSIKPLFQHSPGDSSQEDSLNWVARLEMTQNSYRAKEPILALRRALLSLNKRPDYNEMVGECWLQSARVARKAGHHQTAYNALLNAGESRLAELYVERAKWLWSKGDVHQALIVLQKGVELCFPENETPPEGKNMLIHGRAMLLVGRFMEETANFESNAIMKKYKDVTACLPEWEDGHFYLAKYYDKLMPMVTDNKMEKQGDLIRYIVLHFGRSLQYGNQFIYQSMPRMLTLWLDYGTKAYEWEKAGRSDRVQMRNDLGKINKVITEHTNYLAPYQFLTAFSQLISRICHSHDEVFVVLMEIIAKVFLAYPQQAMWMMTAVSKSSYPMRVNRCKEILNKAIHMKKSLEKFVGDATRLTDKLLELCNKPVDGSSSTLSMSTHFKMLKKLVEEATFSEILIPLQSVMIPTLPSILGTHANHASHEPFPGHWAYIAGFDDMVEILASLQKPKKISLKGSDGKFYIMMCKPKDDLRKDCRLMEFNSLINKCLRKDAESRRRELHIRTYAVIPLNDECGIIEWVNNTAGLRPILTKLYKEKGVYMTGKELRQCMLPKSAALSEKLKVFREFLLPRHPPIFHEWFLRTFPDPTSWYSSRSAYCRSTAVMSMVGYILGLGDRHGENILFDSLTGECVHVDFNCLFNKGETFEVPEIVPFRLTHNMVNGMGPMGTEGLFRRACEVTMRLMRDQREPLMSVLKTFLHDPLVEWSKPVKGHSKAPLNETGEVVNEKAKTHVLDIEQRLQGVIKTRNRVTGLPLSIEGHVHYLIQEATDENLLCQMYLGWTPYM
T1 sequence (Q8WXE1 whole entry partner): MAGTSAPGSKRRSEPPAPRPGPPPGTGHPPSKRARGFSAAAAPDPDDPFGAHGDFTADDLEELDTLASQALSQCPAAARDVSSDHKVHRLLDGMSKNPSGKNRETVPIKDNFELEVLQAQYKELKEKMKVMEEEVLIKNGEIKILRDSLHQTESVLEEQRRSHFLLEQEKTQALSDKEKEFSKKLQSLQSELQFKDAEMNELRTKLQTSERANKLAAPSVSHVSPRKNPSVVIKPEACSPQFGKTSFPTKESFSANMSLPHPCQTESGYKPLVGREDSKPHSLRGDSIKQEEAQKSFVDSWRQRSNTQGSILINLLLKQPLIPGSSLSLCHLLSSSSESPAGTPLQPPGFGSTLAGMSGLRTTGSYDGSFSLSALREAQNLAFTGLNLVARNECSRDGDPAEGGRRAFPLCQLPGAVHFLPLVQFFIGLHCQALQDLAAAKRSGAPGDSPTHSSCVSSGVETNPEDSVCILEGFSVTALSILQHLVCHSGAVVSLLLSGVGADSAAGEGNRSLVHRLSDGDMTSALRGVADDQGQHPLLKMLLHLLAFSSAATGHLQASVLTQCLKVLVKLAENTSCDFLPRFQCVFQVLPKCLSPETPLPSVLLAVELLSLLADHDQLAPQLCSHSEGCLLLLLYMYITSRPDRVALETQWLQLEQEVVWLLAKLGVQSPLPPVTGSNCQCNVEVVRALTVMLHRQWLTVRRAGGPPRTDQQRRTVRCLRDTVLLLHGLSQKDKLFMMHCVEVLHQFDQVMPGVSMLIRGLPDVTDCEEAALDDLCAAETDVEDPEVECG
Sequence of PARP1 (P09874 whole entry): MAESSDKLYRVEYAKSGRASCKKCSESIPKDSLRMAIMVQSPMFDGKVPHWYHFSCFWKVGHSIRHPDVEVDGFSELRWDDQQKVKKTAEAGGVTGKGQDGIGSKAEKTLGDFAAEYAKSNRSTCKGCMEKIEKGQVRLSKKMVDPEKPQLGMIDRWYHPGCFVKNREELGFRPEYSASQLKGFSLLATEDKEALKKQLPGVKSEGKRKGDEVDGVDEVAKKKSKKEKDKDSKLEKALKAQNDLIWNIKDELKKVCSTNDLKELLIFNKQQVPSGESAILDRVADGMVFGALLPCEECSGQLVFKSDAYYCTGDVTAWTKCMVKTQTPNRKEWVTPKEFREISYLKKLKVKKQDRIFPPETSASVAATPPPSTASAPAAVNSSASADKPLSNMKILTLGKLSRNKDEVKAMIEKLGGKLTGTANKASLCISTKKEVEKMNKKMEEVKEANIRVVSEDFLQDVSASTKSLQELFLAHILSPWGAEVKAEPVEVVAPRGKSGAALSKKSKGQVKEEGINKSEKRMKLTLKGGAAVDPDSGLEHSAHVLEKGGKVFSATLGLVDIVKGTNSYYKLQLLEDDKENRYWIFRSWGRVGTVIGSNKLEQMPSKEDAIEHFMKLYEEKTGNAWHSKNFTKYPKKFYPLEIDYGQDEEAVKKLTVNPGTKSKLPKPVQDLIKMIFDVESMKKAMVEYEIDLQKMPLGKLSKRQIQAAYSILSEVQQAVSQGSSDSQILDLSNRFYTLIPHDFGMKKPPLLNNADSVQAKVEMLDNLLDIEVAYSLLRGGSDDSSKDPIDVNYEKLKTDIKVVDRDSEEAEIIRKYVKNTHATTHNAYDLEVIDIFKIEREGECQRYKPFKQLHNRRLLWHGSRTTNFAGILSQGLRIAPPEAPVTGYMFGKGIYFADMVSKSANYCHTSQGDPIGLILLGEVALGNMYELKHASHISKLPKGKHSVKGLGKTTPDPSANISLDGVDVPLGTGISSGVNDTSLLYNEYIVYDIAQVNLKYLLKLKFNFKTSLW

SMILES	inhibition at 30 µM (MCF‐10A)	effect on cell cycle distribution (MDA‐MB‐468 cells)	IC50 (MDA‐MB‐436)	IC50 (MDA‐MB‐436; [2])	IC50 (MDA‐MB‐468)	IC50 (MDA‐MB‐453)	IC50 (MCF‐7)	activity against ATR (SAR summary in words, Figure 7) (ATR)	IC50 (ATR)	activity against TNBC cells (SAR summary in words, Figure 7) [1]	activity against PARP1 (SAR summary in words, Figure 7) (PARP1)	IC50 (PARP1)	IC50 (MDA‐MB‐231)	inhibition at 5 µM (MDA‐MB‐436; Homo sapiens)
C[C@@H]1COCCN1c1cc(C2([S@](C)(=N)=O)CC2)nc(-c2cc[nH]c3nccc2-3)n1 [8 (AZD6738), Ceralasertib, reference compound]	25.9%	did not significantly change the cell cycle distribution	3840 ± 520 nM	3800 nM	18600 ± 1750 nM	1460 ± 170 nM	2010 ± 430 nM							
C[C@@H]1COCCN1c1cc(C2(NC(=O)c3cc(Cc4n[nH]c(=O)c5ccccc45)ccc3F)CC2)nc(-c2ccnc3[nH]ccc23)n1 [Compound A1, (R)‐2‐fluoro‐N‐(1‐(6‐(3‐methylmorpholino)‐2‐(1H‐pyrrolo[2,3‐b]pyridin‐4‐yl)pyrimidin‐4‐yl)cyclopropyl)‐5‐((4‐oxo‐3,4‐dihydrophthalazin‐1‐yl)methyl)benzamide]				2920 ± 2050 nM	8540 ± 1070 nM			moderate activity	215 ± 22 nM	weak activity	moderate activity	1150 ± 43 nM	5260 ± 1140 nM	
C[C@@H]1COCCN1c1cc(C2(NC(=O)C3CCN(C(=O)c4cc(Cc5n[nH]c(=O)c6ccccc56)ccc4F)CC3)CC2)nc(-c2ccnc3[nH]ccc23)n1 [Compound A5, (R)‐1‐(2‐fluoro‐5‐((4‐oxo‐3,4‐dihydrophthalazin‐1‐yl)methyl)benzoyl)‐N‐(1‐(6‐(3‐methylmorpholino)‐2‐(1H‐pyrrolo[2,3‐b]pyridin‐4‐yl)pyrimidin‐4‐yl)cyclopropyll)piperidine‐4‐carboxamide]				570 ± 40 nM	570 ± 80 nM				143 ± 11 nM			1.08 ± 0.74 nM	3630 ± 1410 nM	
C[C@@H]1COCCN1c1cc(C2(NC(=O)N3CCN(C(=O)c4cc(Cc5n[nH]c(=O)c6ccccc56)ccc4F)CC3)CC2)nc(-c2ccnc3[nH]ccc23)n1 [Compound A6, (R)‐4‐(2‐fluoro‐5‐((4‐oxo‐3,4‐dihydrophthalazin‐1‐yl)methyl)benzoyl)‐N‐(1‐(6‐(3‐methylmorpholino)‐2‐(1H‐pyrrolo[2,3‐b]pyridin‐4‐yl)pyrimidin‐4‐yl)cyclopropyll)piperazine‐1‐carboxamide]				590 ± 10 nM	1150 ± 10 nM				> 500 nM			0.98 ± 0.88 nM	4160 ± 1090 nM	
C[C@@H]1COCCN1c1cc(CNC(=O)c2cc(Cc3n[nH]c(=O)c4ccccc34)ccc2F)nc(-c2ccnc3[nH]ccc23)n1 [Compound B1, (R)‐2‐fluoro‐N‐((6‐(3‐methylmorpholino)‐2‐(1H‐pyrrolo[2,3‐b]pyridin‐4‐yl)pyrimidin‐4‐yl)methyl)‐5‐((4‐oxo‐3,4‐dihydrophthalazin‐1‐yl)methyl)benzamide]				910 ± 50 nM	7880 ± 1140 nM			moderate activity	39.5 ± 3.7 nM	weak activity	moderate activity	420 ± 31 nM	3050 ± 760 nM	
C[C@@H]1COCCN1c1cc(CNC(=O)CNC(=O)c2cc(Cc3n[nH]c(=O)c4ccccc34)ccc2F)nc(-c2ccnc3[nH]ccc23)n1 [Compound B2, (R)‐2‐fluoro‐N‐(2‐(((6‐(3‐methylmorpholino)‐2‐(1H‐pyrrolo[2,3‐b]pyridin‐4‐yl)pyrimidin‐4‐yl)methyl)amino)‐2‐oxoethyl)‐5‐((4‐oxo‐3,4‐dihydrophthalazin‐1‐yl)methyl)benzamide]					8410 ± 610 nM				168 ± 7.8 nM			16 ± 2.4 nM	10580 ± 10 nM	40.3%
C[C@@H]1COCCN1c1cc(CNC(=O)CCNC(=O)c2cc(Cc3n[nH]c(=O)c4ccccc34)ccc2F)nc(-c2ccnc3[nH]ccc23)n1 [Compound B3, (R)‐2‐fluoro‐N‐(3‐(((6‐(3‐methylmorpholino)‐2‐(1H‐pyrrolo[2,3‐b]pyridin‐4‐yl)pyrimidin‐4‐yl)methyl)amino)‐3‐oxopropyl)‐5‐((4‐oxo‐3,4‐dihydrophthalazin‐1‐yl)methyl)benzamide]					17700 ± 530 nM				347 ± 15.7 nM			9.5 ± 1.8 nM	14300 ± 1400 nM	34.9%
C[C@@H]1COCCN1c1cc(CNC(=O)CCCNC(=O)c2cc(Cc3n[nH]c(=O)c4ccccc34)ccc2F)nc(-c2ccnc3[nH]ccc23)n1 [Compound B4, (R)‐2‐fluoro‐N‐(4‐(((6‐(3‐methylmorpholino)‐2‐(1H‐pyrrolo[2,3‐b]pyridin‐4‐yl)pyrimidin‐4‐yl)methyl)amino)‐4‐oxobutyl)‐5‐((4‐oxo‐3,4‐dihydrophthalazin‐1‐yl)methyl)benzamide]					6830 ± 100 nM				111 ± 8.1 nM			6.2 ± 0.9 nM	14300 ± 3910 nM	47%
C[C@@H]1COCCN1c1cc(CNC(=O)C2CCN(C(=O)c3cc(Cc4n[nH]c(=O)c5ccccc45)ccc3F)CC2)nc(-c2ccnc3[nH]ccc23)n1 [Compound B5, (R)‐1‐(2‐fluoro‐5‐((4‐oxo‐3,4‐dihydrophthalazin‐1‐yl)methyl)benzoyl)‐N‐((6‐(3‐methylmorpholino)‐2‐(1H‐pyrrolo[2,3‐b]pyridin‐4‐yl)pyrimidin‐4‐yl)methyl)piperidine‐4‐carboxamide]				1190 ± 230 nM	1460 ± 100 nM				36.7 ± 4.6 nM			1.2 ± 0.3 nM	4480 ± 1080 nM	
C[C@@H]1COCCN1c1cc(CNS(=O)(=O)C2CCN(C(=O)c3cc(Cc4n[nH]c(=O)c5ccccc45)ccc3F)CC2)nc(-c2ccnc3[nH]ccc23)n1 [Compound B6, (R)‐1‐(2‐fluoro‐5‐((4‐oxo‐3,4‐dihydrophthalazin‐1‐yl)methyl)benzoyl)‐N‐((6‐(3‐methylmorpholino)‐2‐(1H‐pyrrolo[2,3‐b]pyridin‐4‐yl)pyrimidin‐4‐yl)methyl)piperidine‐4‐sulfonamide]				780 ± 80 nM	700 ± 70 nM				112 ± 5.3 nM			0.46 ± 0.1 nM	3960 ± 2050 nM	
C[C@@H]1COCCN1c1cc(CNC(=O)N2CCN(C(=O)c3cc(Cc4n[nH]c(=O)c5ccccc45)ccc3F)CC2)nc(-c2ccnc3[nH]ccc23)n1 [Compound B7, (R)‐4‐(2‐fluoro‐5‐((4‐oxo‐3,4‐dihydrophthalazin‐1‐yl)methyl)benzoyl)‐N‐((6‐(3‐methylmorpholino)‐2‐(1H‐pyrrolo[2,3‐b]pyridin‐4‐yl)pyrimidin‐4‐yl)methyl)piperazine‐1‐carboxamide]				1290 ± 560 nM	960 ± 40 nM				78.8 ± 6.2 nM			0.76 ± 0.09 nM	1600 ± 90 nM	
